Experimental data from patent publication US20120121540A1 (priority 2007, published 2012).

Test: HCV replicon assay (luciferase reporter, ET cell line)
Format: cell-based
Details: Hepatitis C virus, HCV replicon luciferase activity in ET cells
Procedure: A cell line, ET (Huh-lucubineo-ET) is used for screening of compounds for inhibiting HCV RNA dependent RNA polymerase. The ET cell line is stably transfected with RNA transcripts harboring a I389 luc-ubi-neo/NS3-3′/ET; replicon with firefly luciferase-ubiquitin-neomycin phosphotransferase fusion protein and EMCV-IRES driven NS3-5B polyprotein containing the cell culture adaptive mutations (E1202G; T1280I; K1846T) (Krieger at al, 2001 and unpublished). The ET cells are grown in DMEM (Dulbeco's Modified Eagle's Medium), supplemented with 10% fetal calf serum, 2 mM Glutamine, Penicillin (100 IU/mL)/Streptomycin (100 μg/mL), 1× nonessential amino acids, and 250 μg/mL G418 (“Geneticin”). They are all available through Life Technologies (Bethesda, Md.). The cells are plated at 0.5−1.0×10^4 cells/well in the 96 well plates and incubated for 24 hrs before adding test compound. The compounds are added to the cells to achieve a final concentration of 0.1 nM to 50 μm and a final DMSO (dimethylsulfoxide) concentration of 0.5%. Luciferase activity is measured 48-72 hours later by adding a lysis buffer and the substrate (Catalog number Glo-lysis buffer E2661 and Bright-Glo luciferase system E2620 Promega, Madison, Wis.). Cells should not be too confluent during the assay. Percent inhibition of replication data is plotted relative to no compound control. Under the same condition, cytotoxicity of the compounds are determined using cell proliferation reagent, WST-1 (Roche, Germany). The compounds showing antiviral activities, but no significant cytotoxicities are chosen to determine EC50 and TC50. For these determinations, a 10 point, 2-fold serial dilution for each compound was used, which spans a concentration range of 1000 fold. EC50 and similarly TC50 values were calculated by fitting % inhibition at each concentration to the following equation:
% inhibition=100%/[(EC50/[I])^b+1]
where b is Hill's coefficient.
% inhibition values at a specific concentration, […] for example, can also be derived from the equation above.

Row | SMILES | inhibition at 10 µM
1 | CC(NC(=O)c1nc2c(C(F)(F)F)cc(-c3ccco3)cn2c1Cl)c1cccs1 (centres unmarked) [Compound 162, 3-Chloro-6-furan-2-yl-8-trifluoromethyl-imidazo[1,2-a]pyridine-2-carboxylic acid (1-thiophen-2-yl-ethyl)-amide] | 44.2%
2 | O=C(NCc1ccccn1)c1nc2c(C(F)(F)F)cc(-c3ccco3)cn2c1Cl [Compound 163, 3-Chloro-6-furan-2-yl-8-trifluoromethyl-imidazo[1,2-a]pyridine-2-carboxylic acid (pyridin-2-ylmethyl)-amide] | 95.4%
3 | O=C(NCc1cccnc1)c1nc2c(C(F)(F)F)cc(-c3ccco3)cn2c1Cl [Compound 164, 3-Chloro-6-furan-2-yl-8-trifluoromethyl-imidazo[1,2-a]pyridine-2-carboxylic acid (pyridin-3-ylmethyl)-amide] | 70.1%
4 | COC(=O)C(NC(=O)c1nc2c(C(F)(F)F)cc(-c3ccco3)cn2c1Cl)c1cccs1 (centres unmarked) [Compound 166, [(3-Chloro-6-furan-2-yl-8-trifluoromethyl-imidazo[1,2-a]pyridine-2-carbonyl)-amino]-thiophen-2-yl-acetic acid methyl ester] | 49.1%
5 | O=C(NCC1CC1)c1nc2c(C(F)(F)F)cc(-c3ccco3)cn2c1Cl [Compound 169, 3-Chloro-6-furan-2-yl-8-trifluoromethyl-imidazo[1,2-a]pyridine-2-carboxylic acid cyclopropylmethyl-amide] | 50.3%
6 | O=C(NCC1CCCCC1)c1nc2c(C(F)(F)F)cc(-c3ccco3)cn2c1Cl [Compound 170, 3-Chloro-6-furan-2-yl-8-trifluoromethyl-imidazo[1,2-a]pyridine-2-carboxylic acid cyclohexylmethyl-amide] | 58%
7 | O=C(NC(C(=O)NCCCN1CCOCC1)c1cccs1)c1nc2c(C(F)(F)F)cc(-c3ccco3)cn2c1Cl (centres unmarked) [Compound 171, 3-Chloro-6-furan-2-yl-8-trifluoromethyl-imidazo[1,2-a]pyridine-2-carboxylic acid [(3-morpholin-4-yl-propylcarbamoyl)-thiophen-2-yl-methyl]-amide] | 99.4%
8 | CN(C)CCNC(=O)C(NC(=O)c1nc2c(C(F)(F)F)cc(-c3ccco3)cn2c1Cl)c1cccs1 (centres unmarked) [Compound 172, 3-Chloro-6-furan-2-yl-8-trifluoromethyl-imidazo[1,2-a]pyridine-2-carboxylic acid [(2-dimethylamino-ethylcarbamoyl)-thiophen-2-yl-methyl]-amide] | 100%
9 | O=C(NCc1ccsc1)c1nc2c(C(F)(F)F)cc(-c3ccco3)cn2c1Cl [Compound 173, 3-Chloro-6-furan-2-yl-8-trifluoromethyl-imidazo[1,2-a]pyridine-2-carboxylic acid (thiophen-3-ylmethyl)-amide] | 95.2%
10 | O=C(NCc1ccccc1)c1nc2c(C(F)(F)F)cc(-c3ccco3)cn2c1Cl [Compound 174, 3-Chloro-6-furan-2-yl-8-trifluoromethyl-imidazo[1,2-a]pyridine-2-carboxylic acid benzylamide] | 85.7%
11 | O=C(NCc1cccs1)c1nc2c(C(F)(F)F)cc(-c3cccs3)cn2c1Cl [Compound 175, 3-Chloro-6-thiophen-2-yl-8-trifluoromethyl-imidazo[1,2-a]pyridine-2-carboxylic acid (thiophen-2-ylmethyl)-amide] | 99.4%
12 | O=C(NCc1cccs1)c1nc2c(C(F)(F)F)cc(-c3ccc(Cl)s3)cn2c1Cl [Compound 176, 3-Chloro-6-(5-chloro-thiophen-2-yl)-8-trifluoromethyl-imidazo[1,2-a]pyridine-2-carboxylic acid (thiophen-2-ylmethyl)-amide] | 96.8%
13 | O=C(NCc1cccs1)c1nc2c(C(F)(F)F)cc(-c3ccccc3)cn2c1Cl [Compound 177, 3-Chloro-6-phenyl-8-trifluoromethyl-imidazo[1,2-a]pyridine-2-carboxylic acid (thiophen-2-ylmethyl)-amide] | 93.2%
14 | O=C(NCc1cccs1)c1nc2c(C(F)(F)F)cc(-c3ccc(F)cc3)cn2c1Cl [Compound 178, 3-Chloro-6-(4-fluoro-phenyl)-8-trifluoromethyl-imidazo[1,2-a]pyridine-2-carboxylic acid (thiophen-2-ylmethyl)-amide] | 75.2%
15 | O=C(NCc1ccccc1C(F)(F)F)c1nc2c(C(F)(F)F)cc(-c3ccco3)cn2c1Cl [Compound 179, 3-Chloro-6-furan-2-yl-8-trifluoromethyl-imidazo[1,2-a]pyridine-2-carboxylic acid 2-trifluoromethyl-benzylamide] | 37.5%
16 | O=C(NCc1cccc(C(F)(F)F)c1)c1nc2c(C(F)(F)F)cc(-c3ccco3)cn2c1Cl [Compound 180, 3-Chloro-6-furan-2-yl-8-trifluoromethyl-imidazo[1,2-a]pyridine-2-carboxylic acid 3-trifluoromethyl-benzylamide] | 20.4%
17 | O=C(NCc1ccc(C(F)(F)F)cc1)c1nc2c(C(F)(F)F)cc(-c3ccco3)cn2c1Cl [Compound 181, 3-Chloro-6-furan-2-yl-8-trifluoromethyl-imidazo[1,2-a]pyridine-2-carboxylic acid 4-trifluoromethyl-benzylamide] | 48.2%
18 | O=C(NCc1nccs1)c1nc2c(C(F)(F)F)cc(-c3ccco3)cn2c1Cl [Compound 182, 3-Chloro-6-furan-2-yl-8-trifluoromethyl-imidazo[1,2-a]pyridine-2-carboxylic acid (thiazol-2-ylmethyl)-amide] | 80.8%
19 | O=C(NCC1CCCO1)c1nc2c(C(F)(F)F)cc(-c3ccco3)cn2c1Cl (centres unmarked) [Compound 184, 3-Chloro-6-furan-2-yl-8-trifluoromethyl-imidazo[1,2-a]pyridine-2-carboxylic acid (tetrahydro-furan-2-ylmethyl)-amide] | 84.4%
20 | O=C(NCCc1cccs1)c1nc2c(C(F)(F)F)cc(-c3ccco3)cn2c1Cl [Compound 185, 3-Chloro-6-furan-2-yl-8-trifluoromethyl-imidazo[1,2-a]pyridine-2-carboxylic acid (2-thiophen-2-yl-ethyl)-amide] | 95.7%
21 | O=C(c1nc2c(C(F)(F)F)cc(-c3ccco3)cn2c1Cl)N1CCC(c2ccccc2)C1 (centres unmarked) [Compound 186, (3-Chloro-6-furan-2-yl-8-trifluoromethyl-imidazo[1,2-a]pyridin-2-yl)-(3-phenyl-pyrrolidin-1-yl)-methanone] | 96%
22 | O=C(NC1CCc2ccccc21)c1nc2c(C(F)(F)F)cc(-c3ccco3)cn2c1Cl (centres unmarked) [Compound 187, 3-Chloro-6-furan-2-yl-8-trifluoromethyl-imidazo[1,2-a]pyridine-2-carboxylic acid indan-1-ylamide] | 34.2%
23 | O=C(c1nc2c(C(F)(F)F)cc(-c3ccco3)cn2c1Cl)N1CCCC1c1cccs1 (centres unmarked) [Compound 189, (3-Chloro-6-furan-2-yl-8-trifluoromethyl-imidazo[1,2-a]pyridin-2-yl)-(2-thiophen-2-yl-pyrrolidin-1-yl)-methanone] | 97.3%
24 | COc1ccccc1CNC(=O)c1nc2c(C(F)(F)F)cc(-c3ccco3)cn2c1Cl [Compound 190, 3-Chloro-6-furan-2-yl-8-trifluoromethyl-imidazo[1,2-a]pyridine-2-carboxylic acid 2-methoxy-benzylamide] | 68.1%
25 | COc1cccc(CNC(=O)c2nc3c(C(F)(F)F)cc(-c4ccco4)cn3c2Cl)c1 [Compound 191, 3-Chloro-6-furan-2-yl-8-trifluoromethyl-imidazo[1,2-a]pyridine-2-carboxylic acid 3-methoxy-benzylamide] | 2.3%
26 | COc1ccc(CNC(=O)c2nc3c(C(F)(F)F)cc(-c4ccco4)cn3c2Cl)cc1 [Compound 192, 3-Chloro-6-furan-2-yl-8-trifluoromethyl-imidazo[1,2-a]pyridine-2-carboxylic acid 4-methoxy-benzylamide] | 73.9%
27 | O=C(NCc1cccs1)c1nc2c(C(F)(F)F)cc(-c3ccccc3)cn2c1C(F)(F)F [Compound 193, 6-Phenyl-3,8-bis-trifluoromethyl-imidazo[1,2-a]pyridine-2-carboxylic acid (thiophen-2-ylmethyl)-amide] | 82.3%
28 | CCc1c(C(=O)NCc2cccs2)nc2c(C(F)(F)F)cc(-c3ccco3)cn12 [Compound 194, 3-Ethyl-6-furan-2-yl-8-trifluoromethyl-imidazo[1,2-a]pyridine-2-carboxylic acid (thiophen-2-ylmethyl)-amide] | 89.5%
29 | O=C(NCc1cccs1)c1nc2c(C(F)(F)F)cc(-c3cccc(F)c3)cn2c1Cl [Compound 196, 3-Chloro-6-(3-fluoro-phenyl)-8-trifluoromethyl-imidazo[1,2-a]pyridine-2-carboxylic acid (thiophen-2-ylmethyl)-amide] | 94%
